Patent US20110034472A1, “Novel Compounds for Treatment of Cancer and Disorders Associated With Angiogenesis Function” (UNIVERSITY OF SOUTHERN CALIFORNIA, priority 2004, published 2011)
“Also recorded” adds a separate entry of the source. Where two headings read alike, the source gives them in different places.

Legend:
DU145 cells = experiment: Annexin V/propidium iodide apoptosis assay, DU145; type: cell-based, human; details: 72 hours exposure, IC80
Experimental: FIG. 19 illustrates apoptosis analysis of DU145 cells treated with SC21 or CPT (IC80). Cells were treated with SC21 or CPT for 24, 48, and 72 h, harvested, stained with annexin V/propidium iodide and analyzed by flow cytometry. Untreated control cells (24 and 48 h) were also included in the analysis. Annexin VFITC signals are recorded in FL1-H or […] and propidium iodide in FL2-H or […]. Cells in the bottom left quadrant (annexin V-negative, propidium iodide-negative) are viable, whereas cells in the right quadrant (annexin V-positive, propidium iodide-negative) are in the early stages of apoptosis, and the cells in the top right quadrant (annexin V-positive, propidium iodide-positive) are in later stages of apoptosis and necrosis.
To quantify drug-induced apoptosis, annexin V/propidium iodide staining was done followed by flow cytometry. […] The resulting fluorescence (FLH-1 channel for green fluorescence and FLH-2 channel for red fluorescence) was measured by flow cytometry using a FACScan flow cytometer (Becton Dickinson).
SC21 and CPT-induced apoptosis was measured by flow cytometry (FIG. 18). SC21 at an IC80 dose for 72 hours induced 12% to 15% apoptosis as measured by calculating sub-G0/G1 population. […] This event precedes nuclear breakdown, DNA fragmentation, the appearance of most apoptosis-associated molecules, and is readily measured by annexin V binding assay. […]

T24 cells = experiment: Two-dimensional gel electrophoresis proteomic analysis, SC23; type: cell-based, human; details: 2D gel spots, SC23 treatment
Experimental: Cells were treated for 12, 24, 48 and 72 hr with SC23 (IC80 dose). The soluble fraction was then extracted and quantified. […] of protein was loaded in the first dimension gel at 800 V for 16 h. Gels were then equilibrated, separated on a 12% SDS-PAGE gel for the second dimension, stained with CyproRuby, and imaged by Typhoon 9100.
SC23-Treated Cells Upregulate a Variety of Proteins in the Molecular Weight Range of 8-58 kDa. […] 2DE was then used to separate these proteins (FIG. 29). As above, treatment with SC23 led to a significant up-regulation of many proteins. Similar analysis was carried out for DU145 cells treated with SC23.
Proteins identified from the spots shown in FIG. 30 are 3-tubulin, myc promoter-binding protein (MPB-1), retinoblastoma-binding protein 7, vimentin, enolase, phosphopyruvate hydratase beta, mitochondrial ATP synthase beta chain.
Among the several spots that were at least 4-fold overexpressed was β-tubulin, which is related to the top three genes identified from our microarray analysis as described above.

[1] = system: MCF-7/ADR breast cancer cells; experiment: MTT cytotoxicity assay, MCF-7/ADR; type: cell-based; details: Homo sapiens, NCI/ADR-RES, read-out: CC50 values (mean ± SD)
Experimental: The sensitivity of a panel of seven human cancer cell lines to SC144 was assessed by MTT-assay. […] The sensitivity towards SC144 was time- and dose-dependent.

[2] = system: HOP-62 non-small cell lung cancer cells; experiment: Sensitivity of various cancer cells to SC144, HOP-62; type: cell-based; details: Homo sapiens
From the text: (§1) The studies were expanded to other cell lines. […] Subnanomolar to low nanomolar potency was also observed in HCT-116 and HT29 colon cancer cell lines (Table 2).

[3] = system: HOP-92 non-small cell lung cancer cells; experiment: Sensitivity of various cancer cells to SC144, HOP-92; type: cell-based; details: Homo sapiens
From the text: as §1

[4] = system: EKVX non-small cell lung cancer cells; experiment: Sensitivity of various cancer cells to SC144, EKVX; type: cell-based; details: Homo sapiens
From the text: as §1

HL60 leukemia cells = experiment: Sensitivity of various cancer cells to SC144, HL60; type: cell-based; details: Homo sapiens, HL-60
From the text: as §1

RPMI-8226 leukemia cells = experiment: Sensitivity of various cancer cells to SC144, RPMI-8226; type: cell-based; details: Homo sapiens
From the text: as §1

SF-295 CNS cancer cells = experiment: Sensitivity of various cancer cells to SC144, SF-295; type: cell-based; details: Homo sapiens
From the text: as §1

[5] = system: SKOV3 ovarian cancer cells; experiment: Sensitivity of various cancer cells to SC144, SKOV3; type: cell-based; details: Homo sapiens, SK-OV-3
From the text: as §1

[6] = system: HCT-116 colon cancer cells; experiment: Sensitivity of various cancer cells to SC144, HCT-116; type: cell-based; details: Homo sapiens
From the text: as §1

HT29 colon cancer cells = experiment: Sensitivity of various cancer cells to SC144, HT29; type: cell-based; details: Homo sapiens, HT-29
From the text: as §1

MDA-MB-435 xenografts = experiment: Nude mice xenograft model of human breast MDA-MB-435 cells; type: in vivo
Experimental: FIG. 3. (A) is a schematic outline of tumor growth and dosing in xenograft models. […] Tumor growth was monitored for five weeks. Values represent the median tumor weight for each group.
After five-days of dosing, the drug treatment was discontinued and the animals were monitored bi-weekly for five weeks.
For statistical analysis, the % T/C value was calculated on the last day of dosing and is graphed for all of the treatment groups (FIG. 3C).
To evaluate the extent of tumor necrosis after drug treatment tumor samples were collected from control and treated mice on day 70.

For `O=C(NNC(=O)c1ccccc1O)C1=CC2C=CC=CC2C=C1O` (stereo not drawn) [SC21], the “early plus late apoptotic cells” value (DU145 cells) was 72%.
For `O=C(NNC(O)c1cc2ccccc2cc1O)c1cc2ccccc2cc1O` (stereo not drawn) [SC23], the β-tubulin protein overexpression (T24 cells) was “at least 4 fold”.
In the case of `O=C(NNc1nc2cc(F)ccc2n2cccc12)c1cnccn1` [SC144, Pyrazine-2-carboxylic acid N′-(7-fluoro-pyrrolo[1,2-a]quinoxalin-4-yl)-hydrazide], the CC50 [1] is reported as 2500 ± 1000 nM, the CC50 ([2]; HOP-62, read-out: CC50) is reported as 10 nM and the CC50 ([2]; non-small cell lung cancer cells HOP-62, EKVX, and HOP-92, read-out: CC50 values range) is reported as 10 to 20 nM. The CC50 [3] was 200 nM, the CC50 [4] was 10 nM and the CC50 (HL60 leukemia cells) was 270 nM. For the same compound, the CC50 (RPMI-8226 leukemia cells) was 250 nM, the CC50 (SF-295 CNS cancer cells) was 420 nM and the CC50 [5] was 120 nM. The CC50 [6] was 17 nM, the CC50 (HT29 colon cancer cells) was 78 nM and the “organ toxicity (H&E staining of kidney, liver, heart tissues)” value (MDA-MB-435 xenografts; 4 mg/kg) was “no damage in these organs; also recorded: does not exhibit organ toxicity”. The reduced tumor growth (MDA-MB-435 xenografts; 4 mg/kg daily i.p. for five days) was 60%, the “necrosis of tumor tissues” value (MDA-MB-435 xenografts; 4 mg/kg, day 70, H&E staining) was “greater than 80%” and the “tolerability, drug-related deaths” value (MDA-MB-435 xenografts; 0.3, 0.8, 4 mg/kg daily i.p. five days) was “well tolerated and did not result in drug-related deaths”. For the same compound, the “body weight compared to vehicle control” value (MDA-MB-435 xenografts; mouse, in vivo) was “no changes in body weight”.
